Columns and labels:
Type in all cases: biochemical
B-Raf V600E = molecular target: T1, B-Raf V600E (Homo sapiens, UniProt P15056, V600E); test: AlphaScreen kinase assay, B-Raf V600E; conditions: read-out: IC50, activity toward kinase B-Raf V600E
T1 construct: P4254. pFastBacBD-CDC37 BRAF D437-K722-X, V600E; His6 with pFastBac HT leader (TEV site) (N); made in house; host or cells: Sf9 (baculovirus; chaperone CDC37 co-expressed)

FGFR1 = molecular target: T2, FGFR1 (Homo sapiens, UniProt P11362, C488A/C584S); test: AlphaScreen kinase assay, FGFR1; conditions: read-out: IC50, activity toward kinase FGFR
T2 construct: P1351.pET N6 BI-PTP FGFR A458-E765-X C488A, C584S; made in house; host or cells: E. coli (PTP1B co-expressed)

Btk = molecular target: T3, Btk (Homo sapiens, UniProt Q06187); test: Z'-Lyte FRET kinase assay (Invitrogen), Btk; conditions: read-out: IC50, activity toward kinase Btk
T3 construct: purchased Invitrogen (assay run by Invitrogen)

Flt1 = molecular target: T4, Flt1 (Homo sapiens, UniProt P17948); test: AlphaScreen kinase assay, Flt1; conditions: read-out: IC50, activity toward kinase Flt1
T4 construct: P1826.pETN6 BI-PTP FLT1 M799-D1165-X WT; His6 (N); made in house; host or cells: E. coli (PTP1B co-expressed)
T4 sequence (P17948 with tags, fused parts or gaps): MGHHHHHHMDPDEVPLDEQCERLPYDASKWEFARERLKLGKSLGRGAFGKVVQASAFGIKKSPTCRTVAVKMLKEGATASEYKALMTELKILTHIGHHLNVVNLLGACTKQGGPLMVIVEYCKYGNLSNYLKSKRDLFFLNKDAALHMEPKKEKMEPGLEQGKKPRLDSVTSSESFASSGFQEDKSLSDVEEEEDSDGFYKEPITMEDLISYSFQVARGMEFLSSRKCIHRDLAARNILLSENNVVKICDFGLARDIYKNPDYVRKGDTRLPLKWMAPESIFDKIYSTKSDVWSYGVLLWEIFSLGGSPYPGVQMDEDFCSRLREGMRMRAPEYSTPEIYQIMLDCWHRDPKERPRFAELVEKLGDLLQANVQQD

Src = molecular target: T5, Src (Homo sapiens, UniProt P12931); test: AlphaScreen kinase assay, Src; conditions: read-out: IC50, activity toward kinase Src
T5 construct: P1144. pET-N6 BI-PTP SRC V86-L536-X; made in house

Kit = molecular target: T6, Kit (Homo sapiens, UniProt P10721); test: AlphaScreen kinase assay, Kit; conditions: read-out: IC50, activity toward kinase Kit
T6 construct: P1332.N6 BI PTP KIT M552-K948-X COD; His6 (N); made in house; host or cells: E. coli (PTP1B co-expressed)

Jnk3 = molecular target: T7, Jnk3 (Homo sapiens, UniProt P53779); test: AlphaScreen kinase assay, Jnk3; conditions: read-out: IC50, activity toward kinase Jnk3
T7 construct: purchased Upstate Biotechnology

B-Raf = molecular target: T8, B-Raf (Homo sapiens, UniProt P15056); test: AlphaScreen kinase assay, B-Raf; conditions: read-out: IC50, activity toward kinase B-Raf
T8 construct: purchased Upstate Biotechnology

Fak = molecular target: T9, Fak (Homo sapiens, UniProt Q05397); test: AlphaScreen kinase assay, Fak; conditions: read-out: IC50, activity toward kinase Fak
T9 construct: P1358.pFastBacHtb FAK S411-Q686-X; His6 with pFastBacHTb leader (TEV site) (N); made in house; host or cells: Sf9 (baculovirus)

Fms = molecular target: T10, Fms (Homo sapiens, UniProt P07333); test: AlphaScreen kinase assay, Fms; conditions: read-out: IC50, activity toward kinase Fms
T10 construct: purchased Upstate Biotechnology

Jnk1 = molecular target: T11, Jnk1 (Homo sapiens, UniProt P45983); test: AlphaScreen kinase assay, Jnk1; conditions: read-out: IC50, activity toward kinase Jnk1
T11 construct: purchased Upstate Biotechnology

Jnk2 = molecular target: T12, Jnk2 (Homo sapiens, UniProt P45984); test: AlphaScreen kinase assay, Jnk2; conditions: read-out: IC50, activity toward kinase Jnk2
T12 construct: purchased Roche Protein Expression Group (Indianapolis, IN)
Excerpt: AlphaScreen assay was used to screen additional kinases. The assay is similarly dependent on the phosphorylation of a peptide substrate. In this assay, an antibody that recognizes phosphorylated substrate is bound to an acceptor bead. The peptide substrate is attached to biotin, which binds to a donor head that contains streptavidin. Thus phosphorylated substrate is bound by antibody and streptavidin, bringing the donor and acceptor heads into close proximity when kinase is not inhibited. The donor produces singlet oxygen which results in emission from the acceptor when they are in close proximity. Conversely, when kinase is inhibited, the donor and acceptor beads are not associated and the emission from the acceptor is reduced.
AlphaScreen assays were done using compounds dissolved in DMSO to a concentration of 20 mM. The compounds were diluted accordingly to the desired final concentrations in each sample well, using 1:3 serial dilution for a total of 8 concentration points.

c-Raf-1 = molecular target: T13, c-Raf-1 (Homo sapiens, UniProt P04049); test: AlphaScreen kinase assay, c-Raf-1; conditions: read-out: IC50, activity toward kinase c-Raf-1
T13 construct: purchased Upstate Biotechnology

Ret = molecular target: T14, Ret (Homo sapiens, UniProt P07949); test: AlphaScreen kinase assay, Ret; conditions: read-out: IC50, activity toward kinase Ret
T14 construct: P1378.pET-SF BI-PTP RET H661-R1012 HIS; made in house
T14 sequence (P07949 with tags, fused parts or gaps): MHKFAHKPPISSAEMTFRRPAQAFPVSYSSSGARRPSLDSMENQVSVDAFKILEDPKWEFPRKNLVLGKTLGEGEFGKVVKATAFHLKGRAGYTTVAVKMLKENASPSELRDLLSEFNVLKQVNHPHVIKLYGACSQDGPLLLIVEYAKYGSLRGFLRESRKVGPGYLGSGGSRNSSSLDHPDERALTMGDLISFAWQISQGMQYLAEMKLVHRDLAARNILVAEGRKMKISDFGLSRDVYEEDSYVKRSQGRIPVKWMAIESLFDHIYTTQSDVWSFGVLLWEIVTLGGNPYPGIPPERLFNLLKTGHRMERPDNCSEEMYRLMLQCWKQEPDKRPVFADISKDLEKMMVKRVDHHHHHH

T9 sequence (Q05397 411-686): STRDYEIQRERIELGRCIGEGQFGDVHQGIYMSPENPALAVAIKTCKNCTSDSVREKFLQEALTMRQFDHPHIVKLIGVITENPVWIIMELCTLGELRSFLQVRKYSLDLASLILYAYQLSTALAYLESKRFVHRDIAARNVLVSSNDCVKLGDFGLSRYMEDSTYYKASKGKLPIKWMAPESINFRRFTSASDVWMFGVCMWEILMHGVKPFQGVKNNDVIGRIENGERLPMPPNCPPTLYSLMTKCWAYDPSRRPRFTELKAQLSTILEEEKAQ
T10 sequence (P07333 20-972): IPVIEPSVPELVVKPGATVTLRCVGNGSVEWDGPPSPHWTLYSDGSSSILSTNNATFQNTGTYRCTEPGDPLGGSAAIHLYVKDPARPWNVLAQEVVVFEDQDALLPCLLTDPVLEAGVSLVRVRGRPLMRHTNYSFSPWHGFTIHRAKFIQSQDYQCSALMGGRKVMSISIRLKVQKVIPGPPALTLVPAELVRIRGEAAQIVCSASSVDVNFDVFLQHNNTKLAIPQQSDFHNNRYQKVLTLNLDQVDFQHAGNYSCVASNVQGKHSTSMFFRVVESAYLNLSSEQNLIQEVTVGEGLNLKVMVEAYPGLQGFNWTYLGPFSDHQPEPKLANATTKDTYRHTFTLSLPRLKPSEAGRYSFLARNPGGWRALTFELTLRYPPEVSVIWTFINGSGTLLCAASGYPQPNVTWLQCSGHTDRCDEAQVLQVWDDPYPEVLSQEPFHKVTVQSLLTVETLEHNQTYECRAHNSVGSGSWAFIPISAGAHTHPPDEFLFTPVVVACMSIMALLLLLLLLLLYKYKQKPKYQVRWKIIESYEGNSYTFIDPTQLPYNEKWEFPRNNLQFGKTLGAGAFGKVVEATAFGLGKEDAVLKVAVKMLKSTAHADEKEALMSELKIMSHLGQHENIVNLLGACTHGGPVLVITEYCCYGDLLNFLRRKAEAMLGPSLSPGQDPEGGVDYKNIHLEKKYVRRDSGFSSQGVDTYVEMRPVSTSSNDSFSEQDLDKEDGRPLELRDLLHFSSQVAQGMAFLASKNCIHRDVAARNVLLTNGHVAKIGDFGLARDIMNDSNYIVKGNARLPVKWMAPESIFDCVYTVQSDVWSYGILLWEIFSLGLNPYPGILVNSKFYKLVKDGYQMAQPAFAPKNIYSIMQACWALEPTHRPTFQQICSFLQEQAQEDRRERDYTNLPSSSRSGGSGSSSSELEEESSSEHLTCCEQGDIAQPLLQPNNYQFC
T11 sequence (P45983 whole entry): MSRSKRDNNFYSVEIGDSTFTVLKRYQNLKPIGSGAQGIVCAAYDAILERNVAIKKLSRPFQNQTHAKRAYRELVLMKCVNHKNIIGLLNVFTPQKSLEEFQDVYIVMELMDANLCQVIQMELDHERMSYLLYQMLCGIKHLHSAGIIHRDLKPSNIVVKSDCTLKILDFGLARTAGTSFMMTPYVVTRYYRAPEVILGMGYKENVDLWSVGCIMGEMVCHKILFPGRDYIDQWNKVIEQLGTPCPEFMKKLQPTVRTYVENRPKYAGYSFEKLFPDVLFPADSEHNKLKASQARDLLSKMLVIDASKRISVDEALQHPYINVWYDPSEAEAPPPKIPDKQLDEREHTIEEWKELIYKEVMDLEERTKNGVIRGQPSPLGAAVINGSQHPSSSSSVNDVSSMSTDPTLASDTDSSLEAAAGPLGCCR
T3 sequence (Q06187 whole entry): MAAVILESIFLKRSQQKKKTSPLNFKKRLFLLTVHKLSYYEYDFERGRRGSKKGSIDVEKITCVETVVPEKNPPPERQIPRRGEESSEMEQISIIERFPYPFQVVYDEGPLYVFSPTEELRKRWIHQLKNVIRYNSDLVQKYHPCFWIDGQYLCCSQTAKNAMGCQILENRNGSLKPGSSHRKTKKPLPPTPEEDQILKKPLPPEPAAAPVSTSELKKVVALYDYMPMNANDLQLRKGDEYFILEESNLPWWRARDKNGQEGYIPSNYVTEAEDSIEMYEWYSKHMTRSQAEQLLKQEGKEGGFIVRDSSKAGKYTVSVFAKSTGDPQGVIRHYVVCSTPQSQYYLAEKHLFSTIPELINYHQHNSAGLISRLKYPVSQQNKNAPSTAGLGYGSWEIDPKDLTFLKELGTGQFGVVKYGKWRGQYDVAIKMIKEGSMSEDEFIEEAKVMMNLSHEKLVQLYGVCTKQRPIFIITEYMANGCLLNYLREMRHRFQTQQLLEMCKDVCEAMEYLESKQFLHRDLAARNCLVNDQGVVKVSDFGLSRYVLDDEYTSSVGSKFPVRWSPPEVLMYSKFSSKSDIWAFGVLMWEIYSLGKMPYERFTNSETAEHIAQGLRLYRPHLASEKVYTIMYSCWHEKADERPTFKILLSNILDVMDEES
T5 sequence (P12931 with tags, fused parts or gaps): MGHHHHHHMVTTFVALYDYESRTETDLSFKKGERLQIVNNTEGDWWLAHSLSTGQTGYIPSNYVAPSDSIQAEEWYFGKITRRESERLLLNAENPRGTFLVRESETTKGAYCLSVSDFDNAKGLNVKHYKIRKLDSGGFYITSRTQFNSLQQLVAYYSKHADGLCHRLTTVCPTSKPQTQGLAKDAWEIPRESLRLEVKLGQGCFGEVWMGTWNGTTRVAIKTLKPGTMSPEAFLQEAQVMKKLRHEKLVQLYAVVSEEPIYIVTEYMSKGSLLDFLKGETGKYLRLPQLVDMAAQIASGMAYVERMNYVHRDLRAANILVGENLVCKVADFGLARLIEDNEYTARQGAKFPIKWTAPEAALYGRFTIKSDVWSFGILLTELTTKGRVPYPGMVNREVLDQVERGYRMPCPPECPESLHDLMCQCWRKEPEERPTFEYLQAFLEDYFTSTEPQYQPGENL
T12 sequence (P45984 whole entry): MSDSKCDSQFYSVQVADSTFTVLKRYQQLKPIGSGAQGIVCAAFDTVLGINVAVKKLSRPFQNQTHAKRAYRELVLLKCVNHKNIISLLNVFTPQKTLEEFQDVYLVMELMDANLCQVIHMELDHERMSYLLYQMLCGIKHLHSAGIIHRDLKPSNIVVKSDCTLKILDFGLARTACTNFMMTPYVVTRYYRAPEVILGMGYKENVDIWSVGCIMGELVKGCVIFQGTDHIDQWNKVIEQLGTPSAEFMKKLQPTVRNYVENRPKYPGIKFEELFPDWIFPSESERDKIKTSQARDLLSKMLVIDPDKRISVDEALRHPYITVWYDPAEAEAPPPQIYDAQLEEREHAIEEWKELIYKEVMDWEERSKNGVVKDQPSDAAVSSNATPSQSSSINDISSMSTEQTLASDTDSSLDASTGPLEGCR
T7 sequence (P53779 whole entry): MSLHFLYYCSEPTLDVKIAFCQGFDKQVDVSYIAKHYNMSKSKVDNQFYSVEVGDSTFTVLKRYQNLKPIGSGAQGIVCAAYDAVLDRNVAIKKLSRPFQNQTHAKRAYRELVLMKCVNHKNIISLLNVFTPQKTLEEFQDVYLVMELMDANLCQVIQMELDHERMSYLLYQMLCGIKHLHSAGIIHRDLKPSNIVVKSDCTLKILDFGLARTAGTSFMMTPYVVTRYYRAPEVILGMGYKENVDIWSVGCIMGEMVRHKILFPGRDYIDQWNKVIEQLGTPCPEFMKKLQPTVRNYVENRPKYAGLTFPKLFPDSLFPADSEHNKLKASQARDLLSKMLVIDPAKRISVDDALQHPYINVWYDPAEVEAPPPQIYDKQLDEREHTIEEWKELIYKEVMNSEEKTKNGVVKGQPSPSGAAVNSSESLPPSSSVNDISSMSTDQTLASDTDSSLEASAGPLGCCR
T6 sequence (P10721 with tags, fused parts or gaps): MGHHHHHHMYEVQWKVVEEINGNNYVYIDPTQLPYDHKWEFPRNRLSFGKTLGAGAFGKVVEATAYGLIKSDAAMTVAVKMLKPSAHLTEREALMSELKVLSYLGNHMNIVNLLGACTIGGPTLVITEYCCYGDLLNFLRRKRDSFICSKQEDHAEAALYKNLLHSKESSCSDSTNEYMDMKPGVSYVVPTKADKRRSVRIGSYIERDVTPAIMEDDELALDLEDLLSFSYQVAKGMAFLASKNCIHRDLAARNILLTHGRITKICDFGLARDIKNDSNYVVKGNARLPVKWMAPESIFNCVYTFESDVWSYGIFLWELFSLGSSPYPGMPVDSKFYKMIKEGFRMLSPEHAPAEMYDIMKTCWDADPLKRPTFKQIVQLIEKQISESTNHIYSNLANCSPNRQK
T2 sequence (P11362 458-765 C488A/C584S): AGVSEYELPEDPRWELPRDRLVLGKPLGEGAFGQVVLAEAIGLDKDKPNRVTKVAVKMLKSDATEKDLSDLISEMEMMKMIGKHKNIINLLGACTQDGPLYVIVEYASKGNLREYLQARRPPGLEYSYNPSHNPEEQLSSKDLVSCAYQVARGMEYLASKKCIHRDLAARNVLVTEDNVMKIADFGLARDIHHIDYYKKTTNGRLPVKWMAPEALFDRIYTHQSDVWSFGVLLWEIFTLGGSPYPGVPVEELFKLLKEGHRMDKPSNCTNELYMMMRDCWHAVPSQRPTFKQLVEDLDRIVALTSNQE
T1 sequence (P15056 with tags, fused parts or gaps V600E): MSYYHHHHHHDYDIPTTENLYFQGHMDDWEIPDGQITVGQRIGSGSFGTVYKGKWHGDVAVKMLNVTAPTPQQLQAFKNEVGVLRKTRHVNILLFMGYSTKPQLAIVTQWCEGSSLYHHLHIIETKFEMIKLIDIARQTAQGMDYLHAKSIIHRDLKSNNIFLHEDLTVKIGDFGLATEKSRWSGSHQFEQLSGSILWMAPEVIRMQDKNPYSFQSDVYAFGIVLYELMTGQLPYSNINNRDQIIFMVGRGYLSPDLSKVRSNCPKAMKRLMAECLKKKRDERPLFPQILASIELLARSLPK

Row | IC50 (B-Raf V600E) | IC50 (FGFR1) | IC50 (Btk) | IC50 (Flt1) | IC50 (Src) | IC50 (Kit) | IC50 (Jnk3) | IC50 (B-Raf) | IC50 (Fak) | IC50 (Fms) | IC50 (Jnk1) | IC50 (Jnk2) | IC50 (c-Raf-1) | IC50 (Ret) | Structure (SMILES)
1 | ≤ 10 µM | ≤ 10 µM | ≤ 10 µM | ≤ 10 µM | ≤ 10 µM | ≤ 10 µM | ≤ 10 µM | ≤ 10 µM | ≤ 10 µM | ≤ 10 µM | ≤ 10 µM |  |  |  | CCNC(=O)COc1ccc(F)c(Cc2c[nH]c3ncc(-c4cccnc4)cc23)c1F [Compound P-1475, 2-[2,4-Difluoro-3-(5-pyridin-3-yl-1H-pyrrolo[2,3-b]pyridin-3-ylmethyl)-phenoxy]-N-ethyl-acetamide]
2 | ≤ 10 µM |  |  |  |  |  |  | ≤ 10 µM |  | ≤ 10 µM |  | ≤ 10 µM |  |  | O=C(Nc1cccc(C(=O)c2c[nH]c3ncc(-c4cccnc4)cc23)c1)Nc1cc(C(F)(F)F)ccc1Cl [Compound P-1732, 1-(2-Chloro-5-trifluoromethyl-phenyl)-3-[3-(5-pyridin-3-yl-1H-pyrrolo[2,3-b]pyridine-3-carbonyl)-phenyl]-urea]
3 | ≤ 10 µM | ≤ 10 µM | ≤ 10 µM |  | ≤ 10 µM | ≤ 10 µM | ≤ 10 µM | ≤ 10 µM | ≤ 10 µM | ≤ 10 µM | ≤ 10 µM |  |  |  | COc1ccc(C(=O)c2c[nH]c3ncc(-c4cccc(C(N)=O)c4)cc23)c(F)c1 [Compound P-1346]
4 | ≤ 10 µM | ≤ 10 µM | ≤ 10 µM | ≤ 10 µM | ≤ 10 µM | ≤ 10 µM |  | ≤ 10 µM | ≤ 10 µM | ≤ 10 µM | ≤ 10 µM |  | ≤ 10 µM | ≤ 10 µM | O=C(Nc1ccc(F)c(C(=O)c2c[nH]c3ncc(-c4cccnc4)cc23)c1F)OCc1ccccc1 [Compound P-0302, [2,4-Difluoro-3-(5-pyridin-3-yl-1H-pyrrolo[2,3-b]pyridine-3-carbonyl)-phenyl]-carbamic acid benzyl ester]
5 | ≤ 10 µM |  |  |  |  | ≤ 10 µM |  | ≤ 10 µM |  | ≤ 10 µM |  | ≤ 10 µM |  |  | CCc1ccc(S(=O)(=O)Nc2ccc(F)c(C(=O)c3c[nH]c4ncc(Cl)cc34)c2F)cc1 [Compound P-1700, N-[3-(5-Chloro-1H-pyrrolo[2,3-b]pyridine-3-carbonyl)-2,4-difluoro-phenyl]-4-ethyl-benzenesulfonamide]
6 | ≤ 10 µM | ≤ 10 µM | ≤ 10 µM |  | ≤ 10 µM |  | ≤ 10 µM | ≤ 10 µM | ≤ 10 µM | ≤ 10 µM | ≤ 10 µM |  |  |  | O=C(O)/C=C/c1ccc(-c2cnc3[nH]cc(C(=O)c4ccccc4F)c3c2)cc1 [Compound P-1473]
7 | ≤ 10 µM |  |  |  |  |  |  | ≤ 10 µM |  | ≤ 10 µM |  | ≤ 10 µM |  |  | O=C(Nc1cccc(C(=O)c2c[nH]c3ncc(-c4cccnc4)cc23)c1)Nc1cccc(C(F)(F)F)c1F [Compound P-1728, 1-(2-Fluoro-3-trifluoromethyl-phenyl)-3-[3-(5-pyridin-3-yl-1H-pyrrolo[2,3-b]pyridine-3-carbonyl)-phenyl]-urea]
8 | ≤ 10 µM | ≤ 10 µM | ≤ 10 µM | ≤ 10 µM | ≤ 10 µM | ≤ 10 µM |  | ≤ 10 µM | ≤ 10 µM | ≤ 10 µM | ≤ 10 µM |  |  |  | CCCS(=O)(=O)Nc1ccc(F)c(C(=O)c2c[nH]c3ncc(-c4cccc(C(=O)O)c4)cc23)c1F [Compound P-1266, 3-{3-[2,6-Difluoro-3-(propane-1-sulfonylamino)-benzoyl]-1H-pyrrolo[2,3-b]pyridin-5-yl}-benzoic acid]

Row | Structure (SMILES) | IC50 (B-Raf V600E) | IC50 (FGFR1) | IC50 (Btk) | IC50 (Flt1) | IC50 (Src) | IC50 (Kit) | IC50 (Jnk3) | IC50 (B-Raf) | IC50 (Fak) | IC50 (Fms) | IC50 (Jnk1) | IC50 (Jnk2) | IC50 (c-Raf-1) | IC50 (Ret)
9 | CCCCOc1ccc(NC(=O)Nc2cccc(C(=O)c3c[nH]c4ncc(-c5cccnc5)cc34)c2)cc1 [Compound P-1729, 1-(4-Butoxy-phenyl)-3-[3-(5-pyridin-3-yl-1H-pyrrolo[2,3-b]pyridine-3-carbonyl)-phenyl]-urea] | ≤ 10 µM |  |  |  |  |  |  | ≤ 10 µM |  | ≤ 10 µM |  | ≤ 10 µM |  | 
